Reference: US8853424B2 (Japan Science and Technology Agency, priority 2008, dated 2014)
Where two headings read alike, the source gives them in different places.

Tests used:
transglutaminase (TGase) = assay: Measurement of TG (TGase inhibitory activity, monodansyl cadaverine / N,N-dimethylcasein fluorescence, FDSS 3000); type: biochemical
Summary of the method: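 Compound (1 μL of 10 mM stock) added to 0.1 mL reaction: 100 mM HEPES-NaOH pH 7.5, 1 mM CaCl2, 20 μM monodansyl cadaverine, 0.05 mg/mL N,N-dimethylcasein, 5 μg/mL TGase. Rate of fluorescence change at 340 nm measured; DMSO control set to 100; TG50 is the concentration halving activity.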

[1] = test system: SOC (store operated calcium channel); assay: Measurement of SOC IC50 (thapsigargin store depletion, calcium re-addition, CHO cells); type: cell-based; conditions: read-out: SOC IC50
Method: The SOC (store operated calcium channel)-suppressive action can be measured by the method described in the Example and using, for example, FDSS 3000.
CHO cell culture medium was replaced with a BSS solution which is an extracellular fluidfree of calcium, the compound of the present invention was added 1 min later, and 1 μM thapsigargin was allowed to act thereon 2 min later to deplete intracellular calcium store. […]

[2] = test system: Truncated N-terminal huntington 150 Q-EGFP-Neuron 2a cells; assay: Measurement of x-Fold (polyglutamine aggregation inhibitory activity); type: cell-based
Method: In the present invention, the polyglutamine aggregation inhibitory activity (x-Fold) can be measured, for example, by the method described in the Example.
The number of the aggregated cells, and the total number of cells were counted by Array Scan V T1 (manufactured by Cellomics, Pittuburg, USA), and the ratio of the aggregated cells to the total number of cells was determined (x-Fold). […]

[3] = TGase activity with compound (10 mM, 1 μL in 0.1 ml enzyme reaction solution), DMSO control taken as 100
[4] = TGase inhibitory activity value, Table 1
[5] = CHO cells, 1 μM thapsigargin, 2 mM calcium chloride
[6] = polyglutamine aggregation inhibitory activity, Table 1
[7] = ratio of aggregated cells to total number of cells, compound 20 μM, 20 hr, almost 1 without compound, smaller = stronger inhibition
[8] = Cricetulus griseus, CHO, Table 1
[9] = Cricetulus griseus, CHO, CHO cells, 1 μM thapsigargin, 2 mM calcium chloride

| TGase activity remaining (% of DMSO control = 100) (transglutaminase (TGase); [3]) | TGase activity remaining (% of DMSO control = 100) (transglutaminase (TGase); [4]) | IC50 [1, 5] | TGase activity remaining (% of DMSO control = 100) (transglutaminase (TGase); TGase inhibitory activity value, Table 1, listed as 7132) | IC50 [1, 8] | IC50 [1, 9] | Molecule | x-Fold [2, 6] | x-Fold [2, 7] | x-Fold ([2]; polyglutamine aggregation inhibitory activity, Table 1, listed as 7132) |
| --- | --- | --- | --- | --- | --- | --- | --- | --- | --- |
| 7 | 7 | 500 nM | – | – | – | 4,4′(phenyl-2-aminoethoxyboryl)diphenyl [Example 10] | 0.92 | 0.92 | – |
| 25 | 25 | 300 nM | – | – | – | 4,4′-((2-aminoethoxy)(3-chloro-4-methylphenyl)boryl)diphenylether [Example 249] | 0.74 | 0.74 | – |
| 23 | – | – | 23 | 200 nM | – | NC(=O)CC(N)C(=O)OB(c1ccccc1)c1ccc(Oc2ccc(B(O)c3ccccc3)cc2)cc1 (single isomer, unassigned) [Example 6, (4-(phenylasparagineboryl)phenyl)(4′-(phenylhydroxyboryl)phenyl)ether] | – | 1.01 | 1.01 |
| 14 | – | 200 nM | – | – | – | OB(c1ccccc1)c1cccc(COCc2cccc(B(O)c3ccccc3)c2)c1 [Example 7, bis(3,3′-(phenylhydroxyboryl)benzyl)ether] | – | 1.03 | – |
| 12 | 12 | – | – | 1000 nM | 1000 nM | Cc1ccc(B(SCCN)c2ccc(C)c(Cl)c2)cc1Cl [Example 32, di(3-chloro-4-methylphenyl)-2-aminoethylthioborane] | 1.02 | 1.02 | – |
| 51 | 51 | – | – | 1000 nM | 1000 nM | Cc1ccc(B(OC(=O)C(N)CN)c2ccc(C)c(Cl)c2)cc1Cl (stereo not drawn) [Example 71, di(3-chloro-4-methylphenyl)(2,3-diaminopropionate-O,N)borane] | 0.97 | 0.97 | – |
| 41 | 41 | – | – | 500 nM | 500 nM | Cc1ccc(B(OCCN2CCNCC2)c2ccc(C)c(Cl)c2)cc1Cl [Example 72, di(3-chloro-4-methylphenyl)piperazinoethoxyborane] | 1.02 | 1.02 | – |
| 35 | 35 | – | – | 1200 nM | 1200 nM | Cc1ccc(B(OCCN2CCCCC2)c2ccc(C)c(Cl)c2)cc1Cl [Example 73, di(3-chloro-4-methylphenyl)piperidinoethoxyborane] | 0.85 | 0.85 | – |
| 108 | 108 | – | – | > 10000 nM | > 10000 nM | CC(C)(C)B(O)c1ccccc1 [Example 109, tertiary-butyl phenyl borinic acid] | 1.02 | 1.02 | – |
| 115 | 115 | – | – | > 10000 nM | > 10000 nM | CCC(C)B(OCCN)c1ccccc1 (stereo not drawn) [Example 110, aminoethyl secondary-butyl phenylborinate] | 1.02 | 1.02 | – |
| 120 | 120 | – | – | 2000 nM | 2000 nM | OCCCCB(O)c1ccccc1 [Example 114, 4-hydroxybutylphenylborinic acid] | 0.99 | 0.99 | – |
| 93 | 93 | – | – | 2000 nM | 2000 nM | NCCOB(c1ccccc1)c1ccc(B(OCCN)c2ccccc2)cc1 [Example 118, 1,4-bis(phenyl-2-aminoethoxyboryl)benzene] | 0.97 | 0.97 | – |
| 101 | – | – | – | – | > 20000 nM | OB(c1ccccc1)c1cccc(B(O)c2ccccc2)c1 [Example 119, 1,3-bis(phenylhydroxyboryl)benzene] | – | 0.84 | – |
| 93 | 93 | – | – | 7000 nM | 7000 nM | N=C(N)NCCCC(N)C(=O)OB(c1ccccc1)c1ccccc1 (stereo not drawn) [Example 122, diphenyl(argininate-O,N)borane] | 0.98 | 0.98 | – |
| 14 | – | 300 nM | – | – | – | OB(c1ccccc1)c1ccc(COCc2ccc(B(O)c3ccccc3)cc2)cc1 [Example 137, bis((4,4′-phenylhydroxyboryl)benzyl)ether] | – | 0.99 | – |
| 101 | – | 20000 nM | – | – | – | OB(c1ccccc1)c1cccc(B(O)c2ccccc2)c1 [Example 147, 1,3-bis(phenylhydroxyboryl)benzene] | – | 0.87 | – |
| 130 | – | > 20000 nM | – | – | – | NC(=O)CC(N)C(=O)OB(c1ccc(COCc2ccc(B(OC(=O)C(N)CC(N)=O)c3ccc(C(F)(F)F)cc3)cc2)cc1)c1ccc(C(F)(F)F)cc1 (stereo not drawn) [Example 185, bis(4,4′-(p-trifluoromethylphenyl-asparagineboryl)benzyl)ether] | – | 0.94 | – |
| 27 | 27 | – | – | 2000 nM | 2000 nM | CCCCNCCOB(c1ccc(C)c(Cl)c1)c1ccc(C)c(Cl)c1 [Example 210, di(3-chloro-4-methylphenyl)butylaminoethyl borinate] | 0.98 | 0.98 | – |
| 86 | 86 | – | – | 1000 nM | 1000 nM | Cc1ccc(B(OCCNCc2ccccc2)c2ccc(C)c(Cl)c2)cc1Cl [Example 211, di(3-chloro-4-methylphenyl)benzylaminoethyl borinate] | 0.99 | 0.99 | – |
| −7 | −7 | – | – | 2000 nM | 2000 nM | Cc1ccc(B(OCC(N)c2ccccc2)c2ccc(C)c(Cl)c2)cc1Cl (stereo not drawn) [Example 214] | 0.90 | 0.90 | – |
| 26 | 26 | – | – | 500 nM | 500 nM | Cc1ccc(B(Oc2ccccc2N)c2ccc(C)c(Cl)c2)cc1Cl [Example 220, di(3-chloro-4-methylphenyl) 2-aminophenylborinate] | 0.50 | 0.50 | – |
| 109 | 109 | – | – | 500 nM | 500 nM | Cc1ccc(B(OC(c2ccccc2)C(N)c2ccccc2)c2ccc(C)c(Cl)c2)cc1Cl (stereo not drawn) [Example 225] | 1.03 | 1.03 | – |
| 40 | 40 | – | – | 500 nM | 500 nM | CCC(N)COB(c1ccc(C)c(Cl)c1)c1ccc(C)c(Cl)c1 (stereo not drawn) [Example 229, di(3-chloro-4-methylphenyl) 2-aminobutylborinate] | 1.09 | 1.09 | – |
| 110 | 110 | – | – | 5000 nM | 5000 nM | CC1[NH2+][B-](c2ccccc2)(c2ccccc2)OC1=O (stereo not drawn) [Example 258, diphenyl(alaninate-O,N)borane] | – | – | – |
| 81 | 81 | – | – | 200 nM | 200 nM | OB(c1ccccc1)c1ccc(COCc2cccc(B(O)c3ccccc3)c2)cc1 [Example 329, (3-(phenylhydroxyboryl)benzyl)(4-(phenylhydroxyboryl)benzyl)ether] | – | – | – |
| 113 | 113 | 10000 nM | – | – | – | bis(3-chloro-4-methylphenyl hydroxyborylbenzyl)ether [Example 125] | – | – | – |

| Molecule | TGase activity remaining (% of DMSO control = 100) (transglutaminase (TGase); [3]) | TGase activity remaining (% of DMSO control = 100) (transglutaminase (TGase); [4]) | IC50 [1, 5] | TGase activity remaining (% of DMSO control = 100) (transglutaminase (TGase); TGase inhibitory activity value, Table 1, listed as 7132) | IC50 [1, 8] | IC50 [1, 9] | x-Fold [2, 6] | x-Fold [2, 7] | x-Fold ([2]; polyglutamine aggregation inhibitory activity, Table 1, listed as 7132) |
| --- | --- | --- | --- | --- | --- | --- | --- | --- | --- |
| OB(c1ccccc1)c1ccc(Oc2ccc(B(O)c3ccccc3)cc2)cc1 [Example 3, bis(4,4′-(phenylhydroxyboryl)phenyl)ether] | −20 | −20 | 500 nM | – | – | – | 0.49 | 0.49 | – |
| NCCSB(c1ccccc1)c1ccc(-c2ccc(B(SCCN)c3ccccc3)cc2)cc1 [Example 9, 4,4′(phenyl-2-aminoethylthioboryl)diphenyl] | 12 | 12 | 500 nM | – | – | – | 0.87 | 0.87 | – |
